{
  "source": "paper PMC4076210",
  "about": "“Discovery of Novel AKT Inhibitors with Enhanced Anti-Tumor Effects in Combination with the MEK Inhibitor” (PLoS ONE, 2014)",
  "format_in_all_cases": "biochemical",
  "key": {"ALK4(h)": {"target": "T1, ALK4(h) (Homo sapiens, UniProt P36896)", "T1 construct": "purchased Millipore KinaseProfiler", "T1 sequence (P36896 24-505)": "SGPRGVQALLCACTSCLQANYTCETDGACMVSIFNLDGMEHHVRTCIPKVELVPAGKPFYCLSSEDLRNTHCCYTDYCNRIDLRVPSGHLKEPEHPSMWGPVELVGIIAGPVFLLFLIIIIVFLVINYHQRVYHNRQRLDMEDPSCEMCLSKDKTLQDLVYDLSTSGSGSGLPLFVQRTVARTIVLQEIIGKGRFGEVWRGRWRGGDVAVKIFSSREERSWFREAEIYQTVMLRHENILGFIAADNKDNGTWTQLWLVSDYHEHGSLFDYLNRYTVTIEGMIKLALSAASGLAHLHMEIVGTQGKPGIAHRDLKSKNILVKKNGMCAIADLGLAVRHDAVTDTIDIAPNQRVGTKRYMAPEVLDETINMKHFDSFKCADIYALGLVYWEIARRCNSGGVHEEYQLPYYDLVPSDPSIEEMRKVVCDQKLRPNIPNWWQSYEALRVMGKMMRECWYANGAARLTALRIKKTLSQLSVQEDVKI", "test": "Kinase panel"}, "CDK5/p25(h)": {"target": "T2, CDK5/p25(h) (Homo sapiens, UniProt Q00535)", "T2 construct": "purchased Millipore KinaseProfiler", "T2 sequence (Q00535 whole entry)": "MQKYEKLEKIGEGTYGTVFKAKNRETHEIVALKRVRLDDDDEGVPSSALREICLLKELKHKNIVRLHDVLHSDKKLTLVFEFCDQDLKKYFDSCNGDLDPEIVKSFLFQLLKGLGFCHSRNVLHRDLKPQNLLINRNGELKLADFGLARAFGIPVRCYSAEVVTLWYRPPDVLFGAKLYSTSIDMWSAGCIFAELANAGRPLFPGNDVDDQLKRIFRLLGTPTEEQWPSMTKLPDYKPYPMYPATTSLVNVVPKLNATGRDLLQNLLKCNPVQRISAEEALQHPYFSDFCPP", "T2 sequence (Q15078 99-307 partner limits assumed)": "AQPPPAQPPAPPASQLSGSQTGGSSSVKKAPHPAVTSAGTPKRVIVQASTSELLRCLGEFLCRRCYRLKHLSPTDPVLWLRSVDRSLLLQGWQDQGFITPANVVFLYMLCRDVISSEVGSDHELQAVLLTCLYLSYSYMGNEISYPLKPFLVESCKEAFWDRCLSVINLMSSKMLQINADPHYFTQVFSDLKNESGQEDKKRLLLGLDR", "test": "Kinase panel"}, "HIPK2(h)": {"target": "T3, HIPK2(h) (Homo sapiens, UniProt Q9H2X6)", "T3 construct": "purchased Millipore KinaseProfiler", "test": "Kinase panel"}, "IRAK4(h)": {"target": "T4, IRAK4(h) (Homo sapiens, UniProt Q9NWZ3)", "T4 construct": "purchased Millipore KinaseProfiler", "T4 sequence (Q9NWZ3 1-460)": "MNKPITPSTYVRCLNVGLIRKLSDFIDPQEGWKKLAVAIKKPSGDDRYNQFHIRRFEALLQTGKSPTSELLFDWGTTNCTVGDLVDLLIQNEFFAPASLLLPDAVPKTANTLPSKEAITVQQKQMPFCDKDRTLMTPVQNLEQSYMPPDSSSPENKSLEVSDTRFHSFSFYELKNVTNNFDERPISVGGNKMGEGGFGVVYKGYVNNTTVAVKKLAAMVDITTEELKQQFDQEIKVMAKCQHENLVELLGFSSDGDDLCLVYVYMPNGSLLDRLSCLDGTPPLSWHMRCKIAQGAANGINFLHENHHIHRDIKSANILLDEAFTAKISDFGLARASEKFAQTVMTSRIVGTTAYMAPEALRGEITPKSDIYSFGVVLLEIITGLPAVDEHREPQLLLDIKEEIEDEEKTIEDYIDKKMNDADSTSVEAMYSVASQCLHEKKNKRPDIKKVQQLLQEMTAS", "test": "Kinase panel"}, "Lyn(h)": {"target": "T5, Lyn(h) (Homo sapiens, UniProt P07948)", "T5 construct": "purchased Millipore KinaseProfiler", "test": "Kinase panel"}, "MELK(h)": {"target": "T6, MELK(h) (Homo sapiens, UniProt Q14680)", "T6 construct": "purchased Millipore KinaseProfiler", "test": "Kinase panel"}, "PAK5(h)": {"target": "T7, PAK5(h) (Homo sapiens, UniProt Q9P286)", "T7 construct": "purchased Millipore KinaseProfiler", "test": "Kinase panel"}, "PKA(h)": {"target": "T8, PKA(h) (Homo sapiens, UniProt P17612)", "T8 construct": "purchased Millipore KinaseProfiler", "test": "Kinase panel"}, "PKD2(h)": {"target": "T9, PKD2(h) (Homo sapiens, UniProt Q9BZL6)", "T9 construct": "purchased Millipore KinaseProfiler", "T9 sequence (Q9BZL6 1-878)": "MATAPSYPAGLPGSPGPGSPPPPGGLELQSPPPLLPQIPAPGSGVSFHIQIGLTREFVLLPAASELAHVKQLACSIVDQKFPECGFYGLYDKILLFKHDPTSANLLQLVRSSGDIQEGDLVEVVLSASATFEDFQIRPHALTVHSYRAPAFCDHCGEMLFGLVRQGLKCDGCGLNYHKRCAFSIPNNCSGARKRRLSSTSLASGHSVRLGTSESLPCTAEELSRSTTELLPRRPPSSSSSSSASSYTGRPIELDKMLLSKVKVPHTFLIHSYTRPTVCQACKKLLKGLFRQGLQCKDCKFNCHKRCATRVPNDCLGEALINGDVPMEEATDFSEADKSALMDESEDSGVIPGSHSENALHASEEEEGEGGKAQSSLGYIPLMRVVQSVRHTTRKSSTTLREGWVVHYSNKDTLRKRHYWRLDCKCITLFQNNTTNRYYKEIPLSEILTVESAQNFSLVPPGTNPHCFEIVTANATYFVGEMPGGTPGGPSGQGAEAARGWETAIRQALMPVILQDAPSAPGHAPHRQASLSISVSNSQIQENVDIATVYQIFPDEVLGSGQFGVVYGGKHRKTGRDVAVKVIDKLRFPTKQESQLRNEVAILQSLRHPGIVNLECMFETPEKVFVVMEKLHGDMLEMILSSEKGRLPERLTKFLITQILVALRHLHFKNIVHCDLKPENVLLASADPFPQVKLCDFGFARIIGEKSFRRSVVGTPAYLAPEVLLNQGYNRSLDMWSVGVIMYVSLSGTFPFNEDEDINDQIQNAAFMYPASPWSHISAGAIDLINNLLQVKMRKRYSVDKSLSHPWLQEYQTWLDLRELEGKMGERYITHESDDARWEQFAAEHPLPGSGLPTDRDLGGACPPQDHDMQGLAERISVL", "test": "Kinase panel"}, "Pyk2(h)": {"target": "T10, Pyk2(h) (Homo sapiens, UniProt Q14289)", "T10 construct": "purchased Millipore KinaseProfiler", "test": "Kinase panel"}, "SAPK2a(T106M)(h)": {"target": "T11, SAPK2a(T106M)(h) (Homo sapiens, UniProt Q16539, T106M)", "T11 construct": "purchased Millipore KinaseProfiler", "T11 sequence (Q16539 whole entry T106M)": "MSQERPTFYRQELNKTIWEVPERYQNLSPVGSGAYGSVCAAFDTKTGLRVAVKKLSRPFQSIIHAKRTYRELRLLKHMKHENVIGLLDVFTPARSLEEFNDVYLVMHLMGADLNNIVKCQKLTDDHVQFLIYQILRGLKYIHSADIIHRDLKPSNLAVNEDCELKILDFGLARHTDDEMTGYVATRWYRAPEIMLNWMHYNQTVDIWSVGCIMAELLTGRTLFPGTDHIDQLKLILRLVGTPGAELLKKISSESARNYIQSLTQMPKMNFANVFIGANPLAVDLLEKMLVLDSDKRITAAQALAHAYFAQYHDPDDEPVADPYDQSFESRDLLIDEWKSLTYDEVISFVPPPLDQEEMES", "test": "Kinase panel"}, "VRK2(h)": {"target": "T12, VRK2(h) (Homo sapiens, UniProt Q86Y07)", "T12 construct": "purchased Millipore KinaseProfiler", "T12 sequence (Q86Y07 whole entry)": "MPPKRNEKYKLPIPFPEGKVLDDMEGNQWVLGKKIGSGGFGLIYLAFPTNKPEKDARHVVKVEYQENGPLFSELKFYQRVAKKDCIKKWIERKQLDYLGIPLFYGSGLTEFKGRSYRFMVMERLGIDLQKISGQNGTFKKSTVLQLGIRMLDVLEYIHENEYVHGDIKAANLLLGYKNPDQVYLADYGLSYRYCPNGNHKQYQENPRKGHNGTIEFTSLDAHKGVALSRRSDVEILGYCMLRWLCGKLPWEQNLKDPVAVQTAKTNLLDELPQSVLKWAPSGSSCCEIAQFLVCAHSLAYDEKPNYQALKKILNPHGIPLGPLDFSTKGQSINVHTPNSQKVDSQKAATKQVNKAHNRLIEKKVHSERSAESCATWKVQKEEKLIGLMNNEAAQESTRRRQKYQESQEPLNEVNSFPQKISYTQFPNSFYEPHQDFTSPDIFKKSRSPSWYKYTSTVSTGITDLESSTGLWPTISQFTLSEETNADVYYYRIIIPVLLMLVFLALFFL", "test": "Kinase panel"}, "PKG1α": {"target": "PKG1α (Homo sapiens, UniProt Q13976)", "sequence (Q13976 whole entry)": "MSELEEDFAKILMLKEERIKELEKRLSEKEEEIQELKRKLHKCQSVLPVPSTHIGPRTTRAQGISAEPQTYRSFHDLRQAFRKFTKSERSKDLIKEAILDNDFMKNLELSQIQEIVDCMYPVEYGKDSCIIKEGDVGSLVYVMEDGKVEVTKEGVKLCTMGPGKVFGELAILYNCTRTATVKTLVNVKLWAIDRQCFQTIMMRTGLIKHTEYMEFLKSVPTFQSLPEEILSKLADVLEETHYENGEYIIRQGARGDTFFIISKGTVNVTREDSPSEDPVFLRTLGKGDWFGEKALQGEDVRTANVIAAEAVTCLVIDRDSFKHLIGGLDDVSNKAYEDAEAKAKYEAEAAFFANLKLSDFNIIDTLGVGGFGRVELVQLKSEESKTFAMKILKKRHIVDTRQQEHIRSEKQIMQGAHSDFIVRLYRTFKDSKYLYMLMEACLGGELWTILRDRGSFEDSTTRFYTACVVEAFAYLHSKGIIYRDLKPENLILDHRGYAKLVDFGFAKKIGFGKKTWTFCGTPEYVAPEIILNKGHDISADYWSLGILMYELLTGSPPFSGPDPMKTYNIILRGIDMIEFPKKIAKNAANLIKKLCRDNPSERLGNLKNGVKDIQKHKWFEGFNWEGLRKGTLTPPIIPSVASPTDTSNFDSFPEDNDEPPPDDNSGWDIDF", "test": "Kinase IC50 assay"}},
  "note": "Read-outs that look alike come from different tables or passages of the source.",
  "data": [
    {"smiles": "Cn1ncc(Cl)c1-c1cc(C(=O)N[C@H](CN)Cc2ccc(F)c(F)c2)oc1Cl", "note": "[GSK2141795]", "values": [
      {"measurement": "inhibition at 0.5 µM", "setting": "ALK4(h); 0.5 µM, read-out: % Inhibition", "result": -8, "unit": "%"},
      {"measurement": "inhibition at 10 µM", "setting": "ALK4(h); 10 µM, read-out: % Inhibition", "result": -18, "unit": "%"},
      {"measurement": "inhibition at 0.5 µM", "setting": "CDK5/p25(h); 0.5 µM, read-out: % Inhibition", "result": -8, "unit": "%"},
      {"measurement": "inhibition at 10 µM", "setting": "CDK5/p25(h); 10 µM, read-out: % Inhibition", "result": 37, "unit": "%"},
      {"measurement": "inhibition at 0.5 µM", "setting": "HIPK2(h); 0.5 µM, read-out: % Inhibition", "result": 26, "unit": "%"},
      {"measurement": "inhibition at 10 µM", "setting": "HIPK2(h); 10 µM, read-out: % Inhibition", "result": 83, "unit": "%"},
      {"measurement": "inhibition at 0.5 µM", "setting": "IRAK4(h); 0.5 µM, read-out: % Inhibition", "result": -12, "unit": "%"},
      {"measurement": "inhibition at 10 µM", "setting": "IRAK4(h); 10 µM, read-out: % Inhibition", "result": 0, "unit": "%"},
      {"measurement": "inhibition at 0.5 µM", "setting": "Lyn(h); 0.5 µM, read-out: % Inhibition", "result": -10, "unit": "%"},
      {"measurement": "inhibition at 10 µM", "setting": "Lyn(h); 10 µM, read-out: % Inhibition", "result": 41, "unit": "%"},
      {"measurement": "inhibition at 0.5 µM", "setting": "MELK(h); 0.5 µM, read-out: % Inhibition", "result": 80, "unit": "%"},
      {"measurement": "inhibition at 10 µM", "setting": "MELK(h); 10 µM, read-out: % Inhibition", "result": 97, "unit": "%"},
      {"measurement": "inhibition at 0.5 µM", "setting": "PAK5(h); 0.5 µM, read-out: % Inhibition", "result": 0, "unit": "%"},
      {"measurement": "inhibition at 10 µM", "setting": "PAK5(h); 10 µM, read-out: % Inhibition", "result": 40, "unit": "%"},
      {"measurement": "inhibition at 0.5 µM", "setting": "PKA(h); 0.5 µM, read-out: % Inhibition", "result": 99, "unit": "%"},
      {"measurement": "inhibition at 10 µM", "setting": "PKA(h); 10 µM, read-out: % Inhibition", "result": 97, "unit": "%"},
      {"measurement": "inhibition at 0.5 µM", "setting": "PKD2(h); 0.5 µM, read-out: % Inhibition", "result": 17, "unit": "%"},
      {"measurement": "inhibition at 10 µM", "setting": "PKD2(h); 10 µM, read-out: % Inhibition", "result": 66, "unit": "%"},
      {"measurement": "inhibition at 0.5 µM", "setting": "Pyk2(h); 0.5 µM, read-out: % Inhibition", "result": 1, "unit": "%"},
      {"measurement": "inhibition at 10 µM", "setting": "Pyk2(h); 10 µM, read-out: % Inhibition", "result": 16, "unit": "%"},
      {"measurement": "inhibition at 0.5 µM", "setting": "SAPK2a(T106M)(h); 0.5 µM, read-out: % Inhibition", "result": -15, "unit": "%"},
      {"measurement": "inhibition at 10 µM", "setting": "SAPK2a(T106M)(h); 10 µM, read-out: % Inhibition", "result": -33, "unit": "%"},
      {"measurement": "inhibition at 0.5 µM", "setting": "VRK2(h); 0.5 µM, read-out: % Inhibition", "result": -15, "unit": "%"},
      {"measurement": "inhibition at 10 µM", "setting": "VRK2(h); 10 µM, read-out: % Inhibition", "result": -5, "unit": "%"},
      {"measurement": "IC50", "setting": "PKG1α", "result": "< 1", "unit": "nM"}
    ]},
    {"smiles": "Cn1ncc(Cl)c1-c1cc(C(=O)N[C@H](CN)Cc2cccc(F)c2)sc1Cl", "note": "[GSK2110183]", "values": [
      {"measurement": "inhibition at 0.5 µM", "setting": "ALK4(h)", "result": 3, "unit": "%"},
      {"measurement": "inhibition at 10 µM", "setting": "ALK4(h)", "result": 0, "unit": "%"},
      {"measurement": "inhibition at 0.5 µM", "setting": "CDK5/p25(h)", "result": -4, "unit": "%"},
      {"measurement": "inhibition at 10 µM", "setting": "CDK5/p25(h)", "result": 28, "unit": "%"},
      {"measurement": "inhibition at 0.5 µM", "setting": "HIPK2(h)", "result": 25, "unit": "%"},
      {"measurement": "inhibition at 10 µM", "setting": "HIPK2(h)", "result": 87, "unit": "%"},
      {"measurement": "inhibition at 0.5 µM", "setting": "IRAK4(h)", "result": -15, "unit": "%"},
      {"measurement": "inhibition at 10 µM", "setting": "IRAK4(h)", "result": -5, "unit": "%"},
      {"measurement": "inhibition at 0.5 µM", "setting": "Lyn(h)", "result": -12, "unit": "%"},
      {"measurement": "inhibition at 10 µM", "setting": "Lyn(h)", "result": 7, "unit": "%"},
      {"measurement": "inhibition at 0.5 µM", "setting": "MELK(h)", "result": 79, "unit": "%"},
      {"measurement": "inhibition at 10 µM", "setting": "MELK(h)", "result": 97, "unit": "%"},
      {"measurement": "inhibition at 0.5 µM", "setting": "PAK5(h)", "result": 2, "unit": "%"},
      {"measurement": "inhibition at 10 µM", "setting": "PAK5(h)", "result": 49, "unit": "%"},
      {"measurement": "inhibition at 0.5 µM", "setting": "PKA(h)", "result": 94, "unit": "%"},
      {"measurement": "inhibition at 10 µM", "setting": "PKA(h)", "result": 96, "unit": "%"},
      {"measurement": "inhibition at 0.5 µM", "setting": "PKD2(h)", "result": 11, "unit": "%"},
      {"measurement": "inhibition at 10 µM", "setting": "PKD2(h)", "result": 56, "unit": "%"},
      {"measurement": "inhibition at 0.5 µM", "setting": "Pyk2(h)", "result": -7, "unit": "%"},
      {"measurement": "inhibition at 10 µM", "setting": "Pyk2(h)", "result": 2, "unit": "%"},
      {"measurement": "inhibition at 0.5 µM", "setting": "SAPK2a(T106M)(h)", "result": -5, "unit": "%"},
      {"measurement": "inhibition at 10 µM", "setting": "SAPK2a(T106M)(h)", "result": -6, "unit": "%"},
      {"measurement": "inhibition at 0.5 µM", "setting": "VRK2(h)", "result": -8, "unit": "%"},
      {"measurement": "inhibition at 10 µM", "setting": "VRK2(h)", "result": -5, "unit": "%"},
      {"measurement": "IC50", "setting": "PKG1α", "result": 0.9, "unit": "nM"}
    ]}
  ]
}
